Test results taken from US20120135863A1, “COMPOSITION AND METHOD FOR PROMOTING PLANT ROOT GROWTH” (priority 2009, published 2012).

System: Raphanus sativus
Test: Root growth promotion test: main root length of Raphanus sativus seedlings in seed growing bag
Type: in vivo
Details: compound 2 at 3 ppm, compound I at 10 ppm, mixture 3 ppm compound 2 + 10 ppm compound I; seeds on cardboard impregnated with 17 ml solution; 25° C., 7 days; average of three repeats
Method: One (1) part of each of the compound 2 and the compound I was dissolved in 99 parts of dimethyl sulfoxide and each of the resultant solutions was diluted with ion-exchange water so as to adjust the concentrations of the compound 2 and the compound I to 3 ppm and 10 ppm, respectively to thereby prepare respective test chemical solutions.
In the same manner, chemical solutions were prepared so as to adjust the concentrations of the compound 2 and the compound I to 6 ppm and 20 ppm, respectively, and then the respective chemical solutions were mixed in an equivalent amount to prepare a mixed test chemical solution containing 3 ppm of the compound 2 and 10 ppm of the compound I.
A cardboard in a seed growing bag (measuring 177 mm×163 mm, manufactured by Daiki Rika Kogyo Co., Ltd.) was impregnated with 17 ml of each of these test chemical solutions, and 3 seeds of Raphanus sativus were sown on the cardboard. The seed growing bag was placed in a plastic container, and the plastic container was sealed. After culturing in a bright place at 25° C. for 7 days, the length of main root was measured. For comparison, the test was conducted in the same manner without treating with the test chemical solution, and the length of the main root was measured. […]

In the case of O=C(O)CCC(=O)NCCc1ccccc1 [Compound I, 4-oxo-4-[(2-phenylethyl)amino]-butyric acid], the “Relative value (main root length, non-treated control group as 100)” value is reported as 148.
